Tests used:
[1] = Antiproliferative activity against human HOC313 cells assessed as reduction in cell viability by MTT assay; format: functional, cell-based
SAS = assay: Antiproliferative activity against human SAS cells assessed as reduction in cell viability by MTT assay; format: functional, cell-based
[2] = Antiproliferative activity against human HaCaT cells assessed as inhibition of cell growth incubated for 48 hrs by SRB assay; format: toxicity, cell-based
FaDu = assay: Antiproliferative activity against human FaDu cells assessed as inhibition of cell growth measured after 72 hrs by CCK-8 assay; format: functional, cell-based
KYSE-150 cell line = assay: Antiproliferative activity against human KYSE-150 cell line assessed as inhibition of cell growth incubated for 48 hrs by CCK-8 assay; format: functional, cell-based; conditions: KYSE-150, 48 h
TE-1 = assay: Antiproliferative activity against human TE-1 cells assessed as inhibition of cell growth by MTT assay; format: functional, cell-based
KYSE-140 = assay: Antiproliferative activity against human KYSE-140 cells assessed as inhibition of cell growth by MTT assay; format: functional, cell-based
ECa-109 cell line = assay: Antiproliferative activity against human EC109 cells assessed as reduction in cell viability measured after 48 hrs by CCK-8 method; format: functional, cell-based; conditions: ECa-109, 48 h
KYSE-450 = assay: Antiproliferative activity against human KYSE-450 cells assessed as reduction in cell growth incubated for 48 hrs by MTT assay; format: functional, cell-based; conditions: KYSE-450, 48 h
KYSE-510 = assay: Antiproliferative activity against human KYSE-510 cells assessed as reduction in cell growth incubated for 48 hrs by MTT assay; format: functional, cell-based; conditions: KYSE-510, 48 h

Cc1sc2c(c1C)C(c1ccc(Cl)cc1)=N[C@@H](CC(=O)OC(C)(C)C)c1nnc(C)n1-2
IC50 [1]: 288 nM
IC50 (SAS): 169 nM
IC50 at 48 h [2]: 320 nM
IC50 (FaDu): 9.64 µM
IC50 (KYSE-150 cell line): 55.4 µM
IC50 (TE-1): 3.99 µM
IC50 (KYSE-140): 4.16 µM
IC50 (ECa-109 cell line): 100 nM
IC50 (KYSE-450): 124 nM
IC50 (KYSE-510): 121 nM
